Data reported in article PMC6711031, “Discovery of new butyrylcholinesterase inhibitors via structure-based virtual screening” (Journal of Enzyme Inhibition and Medicinal Chemistry, 2019).
Where two headings read alike, the source gives them in different places.

Biological target: T1, BChE from equine serum (Equus caballus, UniProt P81908)
T1 construct: BChE from equine serum (Sigma); purchased Sigma; host or cells: equine serum
Assay: biochemical
Conditions: eqBChE 0.22 U/mL, Tris-HCl pH 8.0, 20 min preincubation at 37 °C, butyrylthiocholine iodide 0.5 mM, read at 412 nm
Experimental: Selected hits were obtained from NCI and they were provided as dry powders in variable quantities (5–10 mg). […] Subsequently, they were diluted to the required concentrations with Tris buffer pH 8.0 for the assay. Enzymatic inhibition assays were performed on BChE from equine serum (Sigma), according to the spectrophotometric Ellman's method. The experiment was performed in 48-well plates in a final volume of 100 µL. Each well contained 0.22 U/mL eqBChE dissolved in Tris–HCl buffer, pH 8.0. They were preincubated for 20 min at different compound concentrations at 37 °C. Then 0.5 mM butyrylthiocholine iodide (Sigma) and 0.35 mM 5,5′-dithiobis -2-nitrobenzoico (DTNB; Sigma) were added. Colour development was measured spectrophotometrically at 412 nm using microplate reader (BioTek ELx800) at a rate of one measurement per minute over 15 min period. […] All samples were assayed in at least duplicate measurements. In general, the amount of DMSO was kept below 1% in the assay. IC50 values were determined graphically from inhibition curves using Graph Pad prism version 6, Graph Pad Software, Inc..

T1 sequence (P81908 whole entry): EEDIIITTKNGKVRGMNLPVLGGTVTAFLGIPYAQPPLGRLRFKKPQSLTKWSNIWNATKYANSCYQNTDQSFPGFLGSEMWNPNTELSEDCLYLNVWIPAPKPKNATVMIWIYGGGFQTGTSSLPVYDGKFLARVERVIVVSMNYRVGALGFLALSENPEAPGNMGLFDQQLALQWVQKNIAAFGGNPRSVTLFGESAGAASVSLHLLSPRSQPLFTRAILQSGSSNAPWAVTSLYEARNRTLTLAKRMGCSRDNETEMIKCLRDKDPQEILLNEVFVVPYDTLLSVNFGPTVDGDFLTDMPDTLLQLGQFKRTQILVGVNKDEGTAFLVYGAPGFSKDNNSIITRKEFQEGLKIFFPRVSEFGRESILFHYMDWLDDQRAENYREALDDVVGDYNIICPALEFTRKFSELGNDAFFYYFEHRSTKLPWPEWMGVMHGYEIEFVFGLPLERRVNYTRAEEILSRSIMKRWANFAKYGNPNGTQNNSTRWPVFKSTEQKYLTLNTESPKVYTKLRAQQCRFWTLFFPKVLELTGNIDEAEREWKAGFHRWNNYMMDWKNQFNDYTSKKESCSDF

Structure (SMILES)	IC50 (read-out: IC50 value) [µM]	IC50 (IC50 value) [µM]
O=C1CC2COc3ccc(OCCN4CCCC4)cc3C2=NN1c1ccccc1 (stereo not drawn) [Compound 4, 2-phenyl-9–(2-(pyrrolidin-1-yl)ethoxy)-4a,5-dihydro-2H-chromeno[4,3-c]pyridazin-3(4H)-one]	8.3 ± 0.07	
OC(c1ccccc1)C(NCCNCc1ccccc1)c1ccccc1 (stereo not drawn) [Compound 12, 2-[2-(benzylamino)ethylamino]-1,2-diphenylethanol]	22.2 ± 0.12	
NCCC1CCc2[nH]c3ccccc3c2C1 (stereo not drawn) [Compound 26, 2–(2,3,4,9-tetrahydro-1H-carbazol-3-yl)ethanamine]		39.7 ± 0.16
